# Measurements reported in patent US7888123B2 (priority 2005, dated 2011).
# Assays:
# [1] = test system: transformant having actin promoter; conditions: GPY plate media, 28° C.
# [2] = test system: Schizochytrium sp. CB15-5; conditions: medium containing 10 to 30 μg/ml Zeocin; 28° C., 72 hours in the shade
# Description: (3) Test for Zeocin Sensitivity of CB15-5 Strain
# The precultured microorganism cells were diluted 1000-fold, and 100 μL thereof was seeded onto GYP plate media having Zeocin concentration ranging from 0 to 50 μg/ml, and incubated at 28° C. for 72 hours in the shade. The number and size of the resulting colonies were measured.
# [3] = test system: transformant having gapdh promoter; conditions: GPY plate media, 28° C.
# Description: (§1) (22) Test for Zeocin Sensitivity of Transformant
# (§2) The precultured microorganism cells were diluted to 20 cells/μl, and 1 μl thereof was spotted onto GPY plate media having Zeocin concentration ranging from 0 to 6000 μg/ml and incubated in the shade at 28° C. for 60 hours.
# [4] = test system: wild type (CB15-5 strain); conditions: GPY plate media, 28° C.
# Description: as §1, §2
# [5] = test system: transformant having ef1α promoter; conditions: GPY plate media, 28° C.
# Description: as §1, §2
compound,measurement,setting,value
Cc1c(N)nc([C@H](CC(N)=O)NC[C@H](N)C(N)=O)nc1C(=O)N[C@H](C(=O)N[C@H](C)[C@@H](O)[C@H](C)C(=O)N[C@H](C(=O)NCCC1=N[C@@H](c2nc(C(=O)NCCCCN=C(N)N)cs2)CS1)[C@@H](C)O)[C@@H](O[C@@H]1O[C@@H](CO)[C@@H](O)[C@H](O)[C@@H]1O[C@H]1O[C@H](CO)[C@@H](O)[C@H](OC(N)=O)[C@@H]1O)c1cnc[nH]1 [Zeocin],Zeocin concentration up to which viable,[1],up to 4000 μg/ml
same,number and size of the colonies,[2],concentration-dependent decrease
same,Zeocin concentration up to which viable,[3],≤ 2000 µg/mL
same,Zeocin concentration in which completely nonviable,[4],20 µg/mL
same,Zeocin concentration up to which viable,[5],≤ 6000 µg/mL
